Laboratory results published in patent US8501755B2, “Tetrahydropyridothienopyrimidine compounds and methods of use thereof” (Bayer Intellectual Property GmbH, priority 2006, dated 2013).

What was measured:
Assay type in all cases: cell-based
[1] = system: A431 cells; test: In vitro tumor cell proliferation assay (Cell Titer-Glo) in A431 cells; conditions: Homo sapiens, A-431, 72 h, A431 human epidermoid carcinoma overexpressing HER1; 72 hours exposure; read-out: IC50, activities in A431 cell lines
Text: (§1) The tumor cell proliferation assay used to test the compounds of the present invention involves a readout called Cell Titer-Glow® Luminescent Cell Viability Assay developed by Promega® (Cunningham, BA “A Growing Issue: Cell Proliferation Assays, Modern kits ease quantification of cell growth” The Scientist 2001, 15(13), 26, and Crouch, S P et al., “The use of ATP bioluminescence as a measure of cell proliferation and cytotoxicity” Journal of Immunological Methods 1993, 160, 81-88), that measures inhibition of cell proliferation. Generation of a luminescent signal corresponds to the amount of ATP present, which is directly proportional to the number of metabolically active (proliferating) cells. A431 cells [human epidermoid carcinoma, ATCC # HTB-20, overexpressing HER1 (EGFR, ErbB1)] and N87 [human gastric carcinoma, ATCC # CRL-1555, overexpressing HER2 (ErbB2) and HER1 (EGFR, ErbB1)] were plated at a density of 2.5×10^3 cells/well in 96 well black-clear bottom tissue culture plates in RPMI media with 10% Fetal Bovine Serum and incubated at 37° C. Twenty-four hours later, test compounds are added at a final concentration range from as high 100 μm to as low […] depend on the activities of the tested compounds in serial dilutions at a final DMSO concentration of 0.1%. Cells were incubated for 72 hours at 37° C. in complete growth media after addition of the test compound. After 72 hours of drug exposure, the plates were equilibrated to room temperature for approximately 30 min. Then, using a Promega Cell Titer Glo Luminescent® assay kit, lysis buffer containing 100 microliters of the enzyme luciferase and its substrate, luciferin mixture, was added to each well. The plates were mixed for 2 min on orbital shaker to ensure cell lysis and incubated for 10 min at room temperature to stabilize luminescence signal. The samples were read on VICTOR2 using Luminescence protocol, and analyzed with Analyze5 software to generate IC50 values.

[2] = system: N87; test: In vitro tumor cell proliferation assay (Cell Titer-Glo) in N87 cells; conditions: N87 human gastric carcinoma overexpressing HER2 and HER1; 72 hours exposure; read-out: IC50, activities in N87 cell lines
Text: as §1

[3] = system: H1975 cells; test: In vitro tumor cell proliferation assay (Cell Titer-Glo) in H1975 cells; conditions: NCI-H1975; H1975 human NSCLC expressing mutant HER1 (L858R,T790M); 72 hours exposure; read-out: IC50, activities in H 1975 cell lines
Text: The tumor cell proliferation assay used to test the compounds of the present invention involves a readout called Cell Titer-Glow® Luminescent Cell Viability Assay developed by Promega® (Cunningham, BA “A Growing Issue: Cell Proliferation Assays, Modern kits ease quantification of cell growth” The Scientist 2001, 15(13), 26, and Crouch, S P et al., “The use of ATP bioluminescence as a measure of cell proliferation and cytotoxicity” Journal of Immunological Methods 1993, 160, 81-88), that measures inhibition of cell proliferation. Generation of a luminescent signal corresponds to the amount of ATP present, which is directly proportional to the number of metabolically active (proliferating) cells.
H1975 cells [human non small cell lung carcinoma, ATCC # CRL-5908, expressing mutant HER1 [(EGFR, ErbB1)(L858R,T790M] were plated at a density of 3×10^3 cells/well in 96 well black-clear bottom tissue culture plates in RPMI media with 10% Fetal Bovine Serum and incubated at 37° C. Twenty-four hours later, test compounds are added at a final concentration range from as high 10 uM to as low 64 pM depending on the activities of the tested compounds in serial dilutions at a final DMSO concentration of 0.1%. Cells were incubated for 72 hours at 37° C. in complete growth media after addition of the test compound. After 72 hours of drug exposure, the plates were equilibrated to room temperature for approximately 30 min. Then, using a Promega Cell Titer Glo Luminescent® assay kit, lysis buffer containing 100 microliters of the enzyme luciferase and its substrate, luciferin mixture, was added to each well. The plates were mixed for 2 min on orbital shaker to ensure cell lysis and incubated for 10 min at room temperature to stabilize luminescence signal. The samples were read on VICTOR2 using Luminescence protocol, and analyzed with Analyze5 software to generate IC50 values.

Row | IC50 [1] | IC50 [2] | IC50 [3] | SMILES
1 | < 200 nM | < 200 nM | 200 to 1000 nM | O=C(/C=C/CN1CCOCC1)N1CCc2c(sc3ncnc(Nc4ccc(OCc5ccccn5)c(Cl)c4)c23)C1 [Example 1, 1-{4-[3-Chloro-4-(pyridin-2-ylmethoxy)-phenylamino]-5,8-dihydro-6H-9-thia-1,3,7 triaza-fluoren-7-yl}-4-morpholin-4-yl-but-2-en-1-one]
2 | < 200 nM | < 200 nM | 1000 to 10000 nM | CCN(CC)C/C=C/C(=O)N1CCc2c(sc3ncnc(Nc4ccc(OCc5ccccn5)c(Cl)c4)c23)C1 [Example 2, N-[3-chloro-4-(pyridin-2-ylmethoxy)phenyl]-7-[(2E)-4-(diethylamino)but-2-enoyl]-5,6,7,8-tetrahydropyrido[4′,3′:4,5]thieno[2,3-d]pyrimidin-4-amine]
3 | < 200 nM | < 200 nM | 200 to 1000 nM | CN(C)C/C=C/C(=O)N1CCc2c(sc3ncnc(Nc4ccc(OCc5ccccn5)c(Cl)c4)c23)C1 [Example 3, N-[3-chloro-4-(pyridin-2-ylmethoxy)phenyl]-7-[(2E)-4-(dimethylamino)but-2-enoyl]-5,6,7,8-tetrahydropyrido[4′,3′:4,5]thieno[2,3-d]pyrimidin-4-amine]
4 | < 200 nM | < 200 nM | 200 to 1000 nM | O=C(/C=C/CN1CCCCC1)N1CCc2c(sc3ncnc(Nc4ccc(OCc5ccccn5)c(Cl)c4)c23)C1 [Example 4, N-[3-chloro-4-(pyridin-2-ylmethoxy)phenyl]-7-[(2E)-4-piperidin-1-ylbut-2-enoyl]-5,6,7,8-tetrahydropyrido[4′,3′:4,5]thieno[2,3-d]pyrimidin-4-amine]
5 | < 200 nM | < 200 nM | 1000 to 10000 nM | CN1CCN(C/C=C/C(=O)N2CCc3c(sc4ncnc(Nc5ccc(OCc6ccccn6)c(Cl)c5)c34)C2)CC1 [Example 5, N-[3-chloro-4-(pyridin-2-ylmethoxy)phenyl]-7-[(2E)-4-(4-methylpiperazin-1-yl)but-2-enoyl]-5,6,7,8-tetrahydropyrido[4′,3′:4,5]thieno[2,3-d]pyrimidin-4-amine]
6 | < 200 nM | < 200 nM | 1000 to 10000 nM | O=C(/C=C/CN1CCOCC1)N1CCc2c(sc3ncnc(Nc4ccc(F)c(Cl)c4)c23)C1 [Example 6, N-(3-chloro-4-fluorophenyl)-7-[(2E)-4-morpholin-4-ylbut-2-enoyl]-5,6,7,8-tetrahydropyrido[4′,3′:4,5]thieno[2,3-d]pyrimidin-4-amine]
7 | < 200 nM | < 200 nM | 200 to 1000 nM | CN(C)C/C=C/C(=O)N1CCc2c(sc3ncnc(Nc4ccc(F)c(Cl)c4)c23)C1 [Example 7, N-(3-chloro-4-fluorophenyl)-7-[(2E)-4-(dimethylamino)but-2-enoyl]-5,6,7,8-tetrahydropyrido[4′,3′:4,5]thieno[2,3-d]pyrimidin-4-amine]
8 | 200 to 1000 nM | < 200 nM | 1000 to 10000 nM | CN1CCN(C/C=C/C(=O)N2CCc3c(sc4ncnc(Nc5ccc(F)c(Cl)c5)c34)C2)CC1 [Example 8, N-(3-chloro-4-fluorophenyl)-7-[(2E)-4-(4-methylpiperazin-1-yl)but-2-enoyl]-5,6,7,8-tetrahydropyrido[4′,3′:4,5]thieno[2,3-d]pyrimidin-4-amine]
9 | < 200 nM | < 200 nM | 1000 to 10000 nM | CCN(CC)C/C=C/C(=O)N1CCc2c(sc3ncnc(Nc4ccc(F)c(Cl)c4)c23)C1 [Example 9, N-(3-chloro-4-fluorophenyl)-7-[(2E)-4-(diethylamino)but-2-enoyl]-5,6,7,8-tetrahydropyrido[4′,3′:4,5]thieno[2,3-d]pyrimidin-4-amine]
10 | < 200 nM | < 200 nM | 1000 to 10000 nM | O=C(/C=C/CN1CCOCC1)N1CCc2c(sc3ncnc(Nc4ccc(OCc5cccc(F)c5)c(Cl)c4)c23)C1 [Example 10, N-{3-chloro-4-[(3-fluorobenzyl)oxy]phenyl}-7-[(2E)-4-morpholin-4-ylbut-2-enoyl]-5,6,7,8-tetrahydropyrido[4′,3′:4,5]thieno[2,3-d]pyrimidin-4-amine]
11 | < 200 nM | < 200 nM | – | C#Cc1cccc(Nc2ncnc3sc4c(c23)CCN(C(=O)/C=C/CN2CCN(C)CC2)C4)c1 [Example 18, N-(3-ethynylphenyl)-7-[(2E)-4-(4-methylpiperazin-1-yl)but-2-enoyl]-5,6,7,8-tetrahydropyrido [4′,3′:4,5]thieno[2,3-d]pyrimidin-4-amine]
12 | 1000 to 10000 nM | – | 1000 to 10000 nM | O=C(/C=C/Cn1ccnc1)N1CCc2c(sc3ncnc(Nc4ccc(F)c(Cl)c4)c23)C1 [Example 34, N-(3-chloro-4-fluorophenyl)-7-[(2E)-4-(1H-imidazol-1-yl)but-2-enoyl]-5,6,7,8-tetrahydropyrido [4′,3′:4,5]thieno[2,3-d]pyrimidin-4-amine]
13 | – | < 200 nM | < 200 nM | CC(C)N(C)C/C=C/C(=O)N1CCc2c(sc3ncnc(Nc4ccc(F)c(Cl)c4)c23)C1 [Example 36, N-(3-chloro-4-fluorophenyl)-7-{(2E)-4-[isopropyl(methyl)amino]but-2-enoyl}-5,6,7,8-tetrahydropyrido[4′,3′:4,5]thieno[2,3-d]pyrimidin-4-amine]
14 | – | < 200 nM | 200 to 1000 nM | CN(C/C=C/C(=O)N1CCc2c(sc3ncnc(Nc4ccc(F)c(Cl)c4)c23)C1)C(C)(C)C [Example 55, 7-{(2E)-4-[tert-butyl(methyl)amino]but-2-enoyl}-N-(3-chloro-4-fluorophenyl)-5,6,7,8-tetrahydropyrido [4′,3′:4,5]thieno[2,3-d]pyrimidin-4-amine]
15 | 200 to 1000 nM | < 200 nM | – | O=C(/C=C/CN1CCOCC1)N1CCc2c(sc3ncnc(Nc4ccc5c(ccn5Cc5ccccn5)c4)c23)C1 [Example 120, 7-[(2E)-4-morpholin-4-ylbut-2-enoyl]-N-[1-(pyridin-2-ylmethyl)-1H-indol-5-yl]-5,6,7,8-tetrahydropyrido [4′,3′:4,5]thieno[2,3-d]pyrimidin-4-amine]
16 | – | < 200 nM | – | CN(C/C=C/C(=O)N1CCc2c(sc3ncnc(Nc4ccc5c(ccn5Cc5ccccc5)c4)c23)C1)C(C)(C)C [Example 131, N-(1-benzyl-1H-indol-5-yl)-7-{(2E)-4-[tert-butyl(methyl)amino]but-2-enoyl}-5,6,7,8-tetrahydropyrido [4′,3′:4,5]thieno[2,3-d]pyrimidin-4-amine]
17 | 1000 to 10000 nM | < 200 nM | – | O=C(C#CCN1CCOCC1)N1CCc2c(sc3ncnc(Nc4ccc(F)c(Cl)c4)c23)C1 [Example 137, N-(3-chloro-4-fluorophenyl)-7-(4-morpholin-4-ylbut-2-ynoyl)-5,6,7,8-tetrahydropyrido [4′,3′:4,5]thieno[2,3-d]pyrimidin-4-amine]
18 | 200 to 1000 nM | < 200 nM | – | C#Cc1cccc(Nc2ncnc3sc4c(c23)CCN(C(=O)C#CCN2CCOCC2)C4)c1 [Example 138, N-(3-ethynylphenyl)-7-(4-morpholin-4-ylbut-2-ynoyl)-5,6,7,8-tetrahydropyrido [4′,3′:4,5]thieno[2,3-d]pyrimidin-4-amine]
19 | – | < 200 nM | – | CC1CCCCN1C/C=C/C(=O)N1CCc2c(sc3ncnc(Nc4ccc(Cl)c(Cl)c4)c23)C1 (stereo not shown) [Example 210, N-(3,4-dichlorophenyl)-7-[(2E)-4-(2-methylpiperidin-1-yl)but-2-enoyl]-5,6,7,8-tetrahydropyrido [4′,3′:4,5]thieno[2,3-d]pyrimidin-4-amine]
